Like-named read-outs stand apart in the source and are kept apart here.
Target: T1, recombinant human Syk (GST-hSyk fusion protein) (Homo sapiens, UniProt P43405)
T1 construct: purchased Carna Biosciences 08-176
Assay: Homogeneous Time-Resolved Fluorescence (HTRF) assay for the recombinant human Syk enzyme
Type: biochemical
Conditions: 10-dose titration, 25 μM ATP
In short: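 GST-hSyk (5 pM) preincubated 10 min with compound (0.1% DMSO) in 15 mM Tris-HCl pH 7.5, 2 mM DTT; reaction started with 250 nM biotinylated peptide, 5 mM Mg, 25 μM ATP, 45 min, room temperature. EDTA quench, Eu-anti-phosphotyrosine/SA-APC HTRF read after 30 min; IC50 from 10-dose titration (10 μM–0.508 nM), four-parameter fit.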

[1] = IC50 class, read-out: rhSYK Activity

SMILES	IC50 [1] [nM]	IC50 (read-out: rhSYK IC50) [nM]
Cc1cc(Nc2nccc(C(F)(F)F)n2)cc(-c2cnn(C[C@@H](O)CC#N)c2)c1 [Example 3.47, (3S)-3-hydroxy-4-[4-(3-methyl-5-{[4-(trifluoromethyl)pyrimidin-2-yl]amino}-phenyl)-1H-pyrazol-1-yl]butanenitrile]	≤ 100	–
Cc1cc(Nc2nccc(C(F)(F)F)n2)cc(-c2cnn(C[C@H](O)C(=O)O)c2)c1 [Example 5.17, (2S)-2-hydroxy-3-[4-(3-methyl-5-{[4-(trifluorometh-yl)pyrimidin-2-yl]amino}-phenyl)-1H-pyrazol-1-yl]propanoic acid]	≤ 100	–
Cc1ccnc(Nc2cccc(-c3cnn(CCC(=O)O)c3)n2)c1 [Example 1.18, 3-(4-{6-[(4-methylpyridin-2-yl)amino]pyridin-2-yl}-1H-pyrazol-1-yl)propanoic acid]	100 to 1000	–
Cc1cc(Nc2nccc(C(F)(F)F)n2)cc(-c2ccn(C)n2)c1 [Example 2.46, N-[3-methyl-5-(1-methyl-1H-pyrazol-3-yl)phenyl]-4-(trifluoromethyl)-pyrimidin-2-amine]	≤ 100	–
Cc1cc(Nc2nccc(C(F)(F)F)n2)cc(-c2n[nH]c3ccccc23)c1 [Example 2.47, N-[3-(1H-indazol-3-yl)-5-methylphenyl]-4-(trifluoromethyl)-pyrimidin-2-amine]	100 to 1000	–
Cc1cc(Nc2nccc(C3CC3)n2)cc(-c2cnn(CCC(=O)O)c2)c1 [Example 2.40, 3-(4-{3-[(4-cyclopropylpyrimidin-2-yl)amino]-5-methylphenyl}-1H-pyrazol-1-yl)propanoic acid]	≤ 100	–
O=C1NCC(Cn2cc(-c3cccc(Nc4nccc(C(F)(F)F)n4)c3)cn2)O1 (stereo not shown) [Example 2.27, 5-{[4-(3-{[4-(trifluoromethyl)pyrimidin-2-yl]amino}phenyl)-1H-pyrazol-1-yl]methyl}-1,3-oxazolidin-2-one]	≤ 100	–
Cc1cc(Nc2nccc(C(F)(F)F)n2)cc(-c2cnn(CC3(O)CCNCC3)c2)c1 [Example 12.1, 4-((4-(3-methyl-5-((4-(trifluoromethyl)pyrimidin-2-yl)amino)phenyl)-1H-pyrazol-1-yl)methyl)piperidin-4-ol]	100 to 1000	110
Cc1cc(Nc2nccc(C3CC3)n2)cc(-n2cc(CCC(=O)O)cn2)c1 [Example 19.3, 3-(1-{3-[(4-cyclopropylpyrimidin-2-yl)amino]-5-methylphenyl}-1H-pyrazol-4-yl)propanoic acid]	≤ 100	–
Cc1cc(Nc2nccc(C(F)F)n2)cc(-c2cnn(CCNS(=O)(=O)N3CCOCC3)c2)c1 [Example 27.14, N-{2-[4-(3-{[4-(difluoromethyl)pyrimidin-2-yl]amino}-5-methylphenyl)-1H-pyrazol-1-yl]ethyl}morpholine-4-sulfonamide]	≤ 100	–
Cc1cc(Nc2ncc(F)c(C)n2)cc(-c2cnn(CCC(N)=O)c2)c1 [Example 2.6, 3-(4-{3-[(5-fluoro-4-methylpyrimidin-2-yl)amino]-5-methylphenyl}-1H-pyrazol-1-yl)propanamide]	≤ 100	–
CCOC(=O)CCn1cc(-c2cc(C)cc(Nc3nccc(C)n3)c2)cn1 [Example 2.42, ethyl 3-(4-{3-methyl-5-[(4-methylpyrimidin-2-yl)amino]phenyl}-1H-pyrazol-1-yl)propanoate]	≤ 100	–
Cc1cc(Nc2nccc(C(F)(F)F)n2)cc(-c2cnn3cccnc23)c1 [Example 2.37, N-(3-methyl-5-pyrazolo[1,5-a]pyrimidin-3-ylphenyl)-4-(trifluoromethyl)pyrimidin-2-amine]	100 to 1000	–
Cc1cc(Nc2nccc(C(F)(F)F)n2)cc(-c2cnn([C@H]3CC[C@@H](O)CC3)c2)c1 [Example 15, cis-4-[4-(3-methyl-5-{[4-(trifluoromethyl)pyrimidin-2-yl]amino}phenyl)-1H-pyrazol-1-yl]cyclohexanol]	≤ 100	5.9
Cc1cc(Nc2cc(C(F)(F)F)ccn2)nc(-c2cnn(CCC(=O)O)c2)c1 [Example 1.21, 3-[4-(4-methyl-6-{[4-(trifluoromethyl)pyridin-2-yl]amino]pyridin-2-yl)-1H-pyrazol-1-yl)propanoic acid]	≤ 100	–
Cc1cc(Nc2nccc(C(F)(F)F)n2)cc(-n2cc(C3(O)CCC(C(=O)O)CC3)cn2)c1 (stereo not shown) [Example 19.10, 4-hydroxy-4-[1-(3-methyl-5-{[4-(trifluoromethyl)pyrimidin-2-yl]amino}phenyl)-1H-pyrazol-4-yl]cyclohexanecarboxylic acid]	100 to 1000	–
CC(=O)Nc1cc(Nc2nccc(C(F)(F)F)n2)cc(-c2cnn(C3CCC(C(=O)O)CC3)c2)c1 (stereo not shown) [Example 1.52, 4-{4-[3-(acetylamino)-5-{[4-(trifluoromethyl)pyrimidin-2-yl]amino}phenyl]-1H-pyrazol-1-yl}cyclohexanecarboxylic acid]	≤ 100	–
Cc1cc(Nc2nccc(C(F)(F)F)n2)cc(-c2cnn(CC3(C)CNC(=O)O3)c2)c1 (stereo not shown) [Example 3.118, 5-methyl-5-{[4-(3-methyl-5-{[4-(trifluoromethyl)pyrimidin-2-yl]amino}phenyl)-1H-pyrazol-1-yl]methyl}-1,3-oxazolidin-2-one]	≤ 100	–
Cc1cc(Nc2nccc(C(C)C)n2)cc(-c2cnn(C[C@@H](O)C(=O)O)c2)c1 [Example 11.16, (2R)-2-hydroxy-3-[4-(3-methyl-5-{[4-(1-methylethyl)-pyrimidin-2-yl]amino}phenyl)-1H-pyrazol-1-yl]propanoic acid]	≤ 100	–
COc1nc(Nc2cc(C)cc(-c3cnn(CC4CNC(=O)O4)c3)c2)ncc1Cl (stereo not shown) [Example 2.23, 5-[(4-{3-[(5-chloro-4-methoxypyrimidin-2-yl)amino]-5-methylphenyl}-1H-pyrazol-1-yl)methyl]-1,3-oxazolidin-2-one]	≤ 100	–
Cc1cc(Nc2nccc(C(F)F)n2)cc(-c2cnn(CC3(O)CCC3)c2)c1 [Example 29.1, 1-((4-(3-((4-(Difluoromethyl)pyrimidin-2-yl)amino)-5-methylphenyl)-1H-pyrazol-1-yl)methyl)cyclobutanol]	–	2
Cc1cc(Nc2nccc(C(F)(F)F)n2)cc(-c2cnn(CCCO)c2)c1 [Example 3.31, 3-[4-(3-methyl-5-{[4-(trifluoromethyl)pyrimidin-2-yl]amino}-phenyl)-1H-pyrazol-1-yl]propan-1-ol]	≤ 100	–
Cc1cc(Nc2nccc(C)n2)cc(-c2cnn(CC3(O)CCOCC3)c2)c1 [Example 12.13, 4-[(4-{3-methyl-5-[(4-methylpyrimidin-2-yl)amino]phenyl}-1H-pyrazol-1-yl)methyl]-tetrahydro-2H-pyran-4-ol]	100 to 1000	–
Cc1cc(Nc2nccc(C(F)(F)F)n2)cc(-c2cnn(CC3CCCO3)c2)c1 (stereo not shown) [Example 13.3, N-{3-methyl-5-[1-(tetra-hydrofuran-2-ylmethyl)-1H-pyrazol-4-yl]phenyl}-4-(trifluoro-methyl)-pyrimidin-2-amine]	≤ 100	–
Cc1cc(Nc2nccc(C(F)(F)F)n2)cc(-c2cnn(CS(N)(=O)=O)c2)c1 [Example 3.39, 1-[4-(3-methyl-5-{[4-(trifluoromethyl)pyrimidin-2-yl]amino}-phenyl)-1H-pyrazol-1-yl]methane-sulfonamide]	≤ 100	–
Cc1cc(Nc2nccc(C(F)F)n2)cc(-c2cn[nH]c2)c1 [Example 1.65, 4-(difluoromethyl)-N-[3-methyl-5-(1H-pyrazol-4-yl)phenyl]pyrimidin-2-amine]	≤ 100	–
